Assay type in all cases: in vivo
The subject of test [1] is Beet Armyworm (Spodoptera exigua) ("BAW"), second instar larvae. Description: Bioassay on beet armyworm (BAW), 128-well diet tray assay. Particulars: Spodoptera exigua. The procedure, abridged: (§1)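 Second-instar larvae on diet in 128-well trays, covered and held at 25° C, 14:10 light-dark, for five to seven days. Percent mortality scored per well and averaged over eight wells; activity reported as a rating category.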

For test [2], the system named is Cabbage Looper (Trichoplusia ni) ("CL"), second instar larvae. Description: Bioassay on cabbage looper (CL), 128-well diet tray assay. Conditions: Trichoplusia ni. The method, boiled down:
as §1

In test [3] the test system is Green Peach Aphid ("GPA") (Myzus persicae), wingless adult and nymph stages. Description: Bioassay on green peach aphid (GPA), foliar spray on infested cabbage seedlings. Particulars: Myzus persicae, foliar, 72 h. The procedure, abridged:
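Values are corrected % control, 100*(X−Y)/X, from live aphid counts per plant under a microscope, treated versus solvent-check plants. Four infested seedlings (20-50 GPA each) per treatment were sprayed to runoff and kept three days near 25° C at ambient RH.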

In test [4] the test system is Yellow Fever Mosquito "YFM" (Aedes aegypti), about 1 day-old larvae. Description: Bioassay on yellow fever mosquito (YFM), 96-well plate larval assay. Particulars: for YFM (Biological Results, rating): Yellow Fever Mosquito (Aedes aegypti) larvae, scored on mortality after 3 days, C = Not Tested; for YFM rating: Table ABC, species YFM, mortality scored after 3 days, C = not tested, D = no activity noticed. As to the method: Example C: Bioassays on Yellow Fever Mosquito “YFM” (Aedes aegypti)
Certain molecules disclosed in this document were tested against YFM using procedures described in the following paragraph. In the reporting of the results, the “YFM Rating Table” was used (See Table Section).
Master plates containing 400 μg of a molecule dissolved in 100 μL of dimethyl sulfoxide (DMSO) (equivalent to a 4000 ppm solution) are used. A master plate of assembled molecules contains 15 μL per well. To this plate, 135 μL of a 90:10 water:acetone mixture is added to each well. A robot (Biomek® NXP Laboratory Automation Workstation) is programmed to dispense 15 μL aspirations from the master plate into an empty 96-well shallow plate (“daughter” plate). There are 6 reps (“daughter” plates) created per master. The created daughter plates are then immediately infested with YFM larvae.
The day before plates are to be treated, mosquito eggs are placed in Millipore water containing liver powder to begin hatching (4 g. into 400 mL). After the daughter plates are created using the robot, they are infested with 220 μL of the liver powder/larval mosquito mixture (about 1 day-old larvae). After plates are infested with mosquito larvae, a non-evaporative lid is used to cover the plate to reduce drying. Plates are held at room temperature for 3 days prior to grading. After 3 days, each well is observed and scored based on mortality.

The test system of test [5] is Cabbage Looper (Trichoplusia ni) ("CL"). Description: Bioassay on Cabbage Looper (CL), Example D, procedure of Example A. Particulars: read-out: CL % Control (or Mortality) Rating. As for the experimental part: (§2) Example D: Bioassays on Cabbage Looper (Trichoplusia ni) (“CL”) and Diamondback Moth (Plutella xylostella) (“DBM”)
(§3) Certain molecules disclosed in this document were tested against CL and DBM (diamondback moth, Plutella xylostella) using procedures described above for BAW and CL (Example A). The results are reported as in the “CL & DBM Rating Table” at concentrations of 0.0005 and 0.00005 ppm, respectively, and are given Table D.

Test [6] relates to Diamondback Moth (Plutella xylostella) ("DBM"). Description: Bioassay on Diamondback Moth (DBM), Example D, procedure of Example A. Conditions: 0.00005 ppm, read-out: DBM % Control (or Mortality) Rating. As to the method: as §2, §3
Where [7] appears, read: read-out: BAW (Biological Results, rating).
Setting [8] is: read-out: CL (Biological Results, rating).
[9] abbreviates: read-out: GPA (Biological Results, rating).

Read-outs that look alike come from different tables or passages of the source.

Regarding `Cc1ccc(C(F)(F)F)c(N2C(=O)CS/C2=N\C(=O)NCCc2ccc(-c3ncn(-c4ccc(OC(F)(F)F)cc4)n3)cc2)c1` [Compound H1], the pest or weed control at 50 µg/cm2 in test [1] (setting [7]) and in test [2] (setting [8]) was 50 to 100% throughout. Moreover, in test [3] (setting [9]), the pest or weed control at 200 µg/mL was 0 to 80%. The “YFM (Biological Results, rating)” value in test [4] is “A (80-100)”. Moreover, the mortality at 0.0005 ppm in test [5] lay in the range of 16 to 50%. The mortality at 5e-05 ppm in test [6] lay in the range of 16 to 50%.

For the compound `Cc1ccc(COCC(F)(F)F)c(N2C(=O)CS/C2=N\C(=O)Nc2ccc(-c3ncn(-c4ccn(CC(F)(F)F)c(=O)c4)n3)cc2F)c1` [Compound J751, (Z)-1-(2-Fluoro-4-(1-(2-oxo-1-(2,2,2-trifluoroethyl)-1,2-dihydropyridin-4-yl)-1H-1,2,4-triazol-3-yl)phenyl)-3-(3-(5-methyl-2-((2,2,2-trifluoroethoxy)methyl)phenyl)-4-oxothiazolidin-2-ylidene)urea], the pest or weed control at 50 µg/cm2 in test [1] (read-out: BAW rating) and in test [2] (read-out: CL rating) was 50 to 100% throughout. In addition, the pest or weed control at 200 µg/mL in test [3] (read-out: GPA rating) lay in the range of 0 to 80%. For the same compound, the YFM rating result in test [4] was “A (80-100)”.

Consider `O=C(/N=C1\SCC(=O)N1c1cc(Cl)ccc1COCc1ccccc1)Nc1ccc(-c2ncn(-c3ccc(OC(F)(F)F)cc3)n2)cc1F` [Compound J719, (Z)-1-(3-(2-((Benzyloxy)methyl)-5-chlorophenyl)-4-oxothiazolidin-2-ylidene)-3-(2-fluoro-4-(1-(4-(trifluoromethoxy)phenyl)-1H-1,2,4-triazol-3-yl)phenyl)urea], for which the pest or weed control at 50 µg/cm2 in test [1] (read-out: BAW rating) and in test [2] (read-out: CL rating) was 50 to 100% throughout. For the same compound, in test [3] (read-out: GPA rating), the pest or weed control at 200 µg/mL was 0 to 80%. Further, the YFM rating result in test [4] was “A (80-100)”.

For `O=C(/N=C1\SCC(=O)N1c1ccccc1COCc1ccccc1)Nc1ccc(-c2ncn(-c3ccc(OC(F)(F)F)cc3)n2)cc1F` [Compound J742, (Z)-1-(3-(2-((Benzyloxy)methyl)phenyl)-4-oxothiazolidin-2-ylidene)-3-(2-fluoro-4-(1-(4-(trifluoromethoxy)phenyl)-1H-1,2,4-triazol-3-yl)phenyl)urea], the pest or weed control at 50 µg/cm2 in test [1] (read-out: BAW rating) and in test [2] (read-out: CL rating) was 50 to 100% throughout. The pest or weed control at 200 µg/mL in test [3] (read-out: GPA rating) is 0 to 80%. For the same compound, the YFM rating result in test [4] is “A (80-100)”.

In the case of `O=C(/N=C1\SCC(=O)N1c1ccccc1C(F)F)NCCc1ccc(-c2ncn(-c3ccc(OC(F)(F)F)cc3)n2)cc1` [Compound H11], the pest or weed control at 50 µg/cm2 in test [1] (setting [7]) and in test [2] (setting [8]) was 50 to 100% in each case. Further, in test [3] (setting [9]), the pest or weed control at 200 µg/mL is 0 to 80%. In addition, in test [4], the “YFM (Biological Results, rating)” value was “A (80-100)”.

On to `Cc1ccc(C(F)(F)F)c(N2C(=O)CS/C2=N\C(=O)Nc2ccc(-c3ncn(-c4ccc(OC(F)(F)F)cc4)n3)cc2)c1` [Compound H20], for which the pest or weed control at 50 µg/cm2 in test [1] (setting [7]) and in test [2] (setting [8]) was 50 to 100% in each case. For the same compound, the pest or weed control at 200 µg/mL in test [3] (setting [9]) was 0 to 80%. The mortality at 0.0005 ppm in test [5] is 16 to 50%. For the same compound, the mortality at 5e-05 ppm in test [6] was in the range of 51 to 100%.

On to `Cc1ccc(C)c(N2C(=O)CS/C2=N\C(=O)Nc2ccc(-c3ncn(-c4ccc(OC(F)(F)F)cc4)n3)cc2)c1` [Compound C2], for which the pest or weed control at 50 µg/cm2 in test [1] (setting [7]) and in test [2] (setting [8]) was 50 to 100% in each case. The pest or weed control at 200 µg/mL in test [3] (setting [9]) is 0 to 80%. In addition, the mortality at 0.0005 ppm in test [5] was in the range of 0 to 15%. Also, in test [6], the mortality at 5e-05 ppm is 0 to 15%.

On to `Cc1ccc(C(F)(F)F)c(N2C(=O)CS/C2=N\C(=O)NCC(F)c2ccc(-c3ncn(-c4ccc(OC(F)(F)F)cc4)n3)cc2)c1` (centres unmarked) [Compound H2], for which the pest or weed control at 50 µg/cm2 in test [1] (setting [7]) and in test [2] (setting [8]) was 50 to 100% throughout. Also, in test [3] (setting [9]), the pest or weed control at 200 µg/mL lay within 80 to 100%. In addition, in test [5], the mortality at 0.0005 ppm fell in the range of 51 to 100%. Also, the mortality at 5e-05 ppm in test [6] fell in the range of 51 to 100%.

For the compound `Cc1cc(-c2cn(-c3ccc(C(F)(F)F)cn3)cn2)ccc1NC(=O)/N=C1\SCC(=O)N1c1cc(N(C)C)ccc1C(C)C` [Compound J510, (Z)-1-(3-(5-(Dimethylamino)-2-isopropylphenyl)-4-oxothiazolidin-2-ylidene)-3-(2-methyl-4-(1-(5-(trifluoromethyl)pyridin-2-yl)-1H-imidazol-4-yl)phenyl)urea], the pest or weed control at 50 µg/cm2 in test [1] (read-out: BAW rating) and in test [2] (read-out: CL rating) was 50 to 100% throughout. For the same compound, the pest or weed control at 200 µg/mL in test [3] (read-out: GPA rating) was 0 to 80%. The YFM rating entry in test [4] is listed as “A (80-100)”.

Usually mortality stands for the percentage killed.

The values above are taken from patent US20230077362A1 (CORTEVA AGRISCIENCE LLC, priority 2019, published 2023).
